Results reported in ChEMBL document CHEMBL1153760, “Identification and structure-activity relationships of chromene-derived selective estrogen receptor modulators for treatment of postmenopausal symptoms” (J Med Chem, 2009).

Columns and labels:
Estrogen receptor [1] = target: T1, Estrogen receptor (Homo sapiens, UniProt P03372); test: Displacement of radiolabeled estrogen from estrogen receptor alpha by scintillation counting
T1 sequence (P03372 whole entry): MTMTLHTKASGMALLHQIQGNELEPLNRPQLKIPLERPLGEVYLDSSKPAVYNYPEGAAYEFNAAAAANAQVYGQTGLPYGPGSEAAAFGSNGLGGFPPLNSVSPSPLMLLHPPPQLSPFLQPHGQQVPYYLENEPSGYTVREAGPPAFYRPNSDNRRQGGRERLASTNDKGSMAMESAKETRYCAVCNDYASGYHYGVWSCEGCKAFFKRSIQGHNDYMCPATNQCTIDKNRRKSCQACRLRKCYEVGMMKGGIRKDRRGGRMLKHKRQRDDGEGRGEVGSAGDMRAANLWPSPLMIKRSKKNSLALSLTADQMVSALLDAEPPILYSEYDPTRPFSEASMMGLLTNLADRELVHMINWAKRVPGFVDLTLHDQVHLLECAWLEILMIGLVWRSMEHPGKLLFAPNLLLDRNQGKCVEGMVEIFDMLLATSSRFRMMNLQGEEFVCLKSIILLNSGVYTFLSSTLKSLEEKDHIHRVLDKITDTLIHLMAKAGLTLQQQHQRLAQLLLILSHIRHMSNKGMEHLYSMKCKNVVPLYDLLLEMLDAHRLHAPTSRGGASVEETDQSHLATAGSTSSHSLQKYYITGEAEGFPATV

Rattus norvegicus = species: Rattus norvegicus; test: animal or person; format: functional; conditions: Uterus, 72 h, route oral
Estrogen receptor beta = Estrogen receptor beta (Homo sapiens, UniProt Q92731); test: Inhibition of fluormone ES2 binding to estrogen receptor beta after 1 hr by fluorescence polarization assay
Estrogen receptor [2] = target: T1, Estrogen receptor; test: Antagonist activity at estrogen receptor in human Ishikawa cells assessed as 17-beta-estradiol-induced alkaline phosphatase activity after 3 days by chemiluminescence assay; format: functional, cell-based

Chain of Estrogen receptor beta (Q92731 whole entry): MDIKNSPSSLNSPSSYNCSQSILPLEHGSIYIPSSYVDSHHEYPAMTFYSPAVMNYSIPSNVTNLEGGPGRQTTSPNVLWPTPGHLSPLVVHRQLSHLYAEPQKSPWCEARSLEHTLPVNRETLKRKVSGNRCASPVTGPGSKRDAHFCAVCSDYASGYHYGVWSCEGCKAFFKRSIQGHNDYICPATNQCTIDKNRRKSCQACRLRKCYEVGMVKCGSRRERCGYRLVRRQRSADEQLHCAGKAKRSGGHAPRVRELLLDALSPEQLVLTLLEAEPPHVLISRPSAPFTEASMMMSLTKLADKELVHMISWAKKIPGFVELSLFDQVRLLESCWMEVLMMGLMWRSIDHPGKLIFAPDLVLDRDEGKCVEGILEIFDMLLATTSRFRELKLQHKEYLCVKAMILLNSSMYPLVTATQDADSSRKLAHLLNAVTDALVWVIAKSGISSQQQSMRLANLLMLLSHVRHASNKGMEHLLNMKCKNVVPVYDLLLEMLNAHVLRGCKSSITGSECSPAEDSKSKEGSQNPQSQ

| Compound | IC50 (Estrogen receptor [1]) | inhibition in vivo at 1 mg/kg (Rattus norvegicus) | IC50 (Estrogen receptor beta) | IC50 (Estrogen receptor [2]) |
| --- | --- | --- | --- | --- |
| O=C1CCC(=O)N1CCOc1ccc([C@H]2Oc3cc(O)ccc3C3=C2c2ccc(O)cc2OCC3)cc1 | 4.8 nM | 0% | 0.64 nM | > 10000 nM |
| Oc1ccc2c(c1)OCCC1=C2[C@@H](c2ccc(OCCN3CCCCC3)cc2)Oc2ccccc21 | 5.8 nM | 130% | 99 nM | 76 nM |
| CCN(CC)CCOc1ccc([C@H]2Oc3ccccc3C3=C2c2ccc(O)cc2OCC3)cc1 | 5 nM | 80% | 108 nM | 113 nM |
| Oc1ccc2c(c1)O[C@@H](c1ccc(OCCN3CCCC3)cc1)C1=C2CCOc2cc(O)ccc21 | 2.5 nM | 20% | 8.7 nM | 165 nM |
| COc1ccc2c(c1)OCCC1=C2[C@H](c2ccc(OCCN3CCCCC3)cc2)Oc2cc(O)ccc21 | 4.2 nM | 20% | 24 nM | 150 nM |
| Oc1ccc2c(c1)O[C@@H](c1cccc(OCCN3CCCCC3)c1)C1=C2CCOc2cc(O)ccc21 | 190 nM | 0% | 200 nM | > 10000 nM |
| OCCOc1ccc(C2Oc3cc(O)ccc3C3=C2c2ccc(O)cc2OCC3)cc1 (stereo not drawn) | 310 nM | 0% | 11 nM | > 10000 nM |
| Oc1ccc2c(c1)O[C@@H](c1ccc(OCCN3CCCCC3)cc1)C1=C2CCOc2cc(O)ccc21 | 3.4 nM | 88% | 16 nM | 32 nM |
| Oc1ccc2c(c1)OC(c1ccc(OCCN3CCCCC3)cc1)C1=C2CCOc2cc(O)ccc21 (stereo not drawn) | 13 nM | 77% | 31 nM | 8 nM |
| CN(C)CCOc1ccc([C@H]2Oc3cc(O)ccc3C3=C2c2ccc(O)cc2OCC3)cc1 | 3.3 nM | 25% | 23 nM | 61 nM |
| Oc1ccc2c(c1)OCCC1=C2[C@H](c2ccc(OCCN3CCCCCC3)cc2)Oc2cc(F)ccc21 | 5 nM | 33% | 31 nM | 161 nM |
| Oc1ccc2c(c1)OCCC1=C2[C@H](c2ccc(OCCN3CCCCC3)cc2)Oc2ccccc21 | 4.2 nM | 20% | 24 nM | 150 nM |
| Oc1ccc2c(c1)OC(c1ccc(OCCN3CCCCC3)cc1)C1=C2CCCOc2cc(O)ccc21 (single isomer, unassigned; (+)) | 23 nM | 33% | 77 nM | 121 nM |
| Oc1ccc2c(c1)O[C@H](c1ccc(OCCCN3CCCCC3)cc1)C1=C2CCOc2cc(O)ccc21 | 22 nM | 23% | 31 nM | 420 nM |
| Oc1ccc2c(c1)O[C@H](c1ccc(OCCN3CCCC3)cc1)C1=C2CCOc2cc(O)ccc21 | 1.2 nM | 10% | 14 nM | 10 nM |
| OCCCOc1ccc(C2Oc3cc(O)ccc3C3=C2c2ccc(O)cc2OCC3)cc1 (stereo not drawn) | 326 nM | 0% | 44 nM | > 10000 nM |
| Oc1ccc2c(c1)OCCC1=C2[C@H](c2ccc(OCCN3CCCCCC3)cc2)Oc2ccccc21 | 4.5 nM | 28% | 22 nM | 68 nM |
| O=C1CCC(=O)N1CCOc1ccc([C@@H]2Oc3cc(O)ccc3C3=C2c2ccc(O)cc2OCC3)cc1 | 6.2 nM | 0% | 18.6 nM | > 10000 nM |
| Oc1ccc2c(c1)OCCC1=C2[C@@H](c2ccc(OCCN3CCCCCC3)cc2)Oc2cc(F)ccc21 | 3.3 nM | 22% | 66 nM | 81 nM |

| Compound | IC50 (Estrogen receptor [1]) | inhibition in vivo at 1 mg/kg (Rattus norvegicus) | IC50 (Estrogen receptor beta) | IC50 (Estrogen receptor [2]) |
| --- | --- | --- | --- | --- |
| Oc1ccc2c(c1)O[C@@H](c1ccc(OCCN3CCCCC3)cc1)C1=C2CCOc2ccccc21 | 6.3 nM | 12% | 63 nM | 25.9 nM |
| O=C1CCC(=O)N1CCCOc1ccc([C@@H]2Oc3cc(O)ccc3C3=C2c2ccc(O)cc2OCC3)cc1 | 41 nM | 0% | 5.68 nM | > 10000 nM |
| Oc1ccc2c(c1)O[C@@H](c1ccc(OCCN3CCCCCC3)cc1)C1=C2CCOc2ccccc21 | 4 nM | 7% | 41 nM | 144 nM |
| Oc1ccc2c(c1)O[C@@H](c1ccc(OCCN3CCSCC3)cc1)C1=C2CCOc2cc(O)ccc21 | 111 nM | 0% | 390 nM | > 10000 nM |
| O=C1CCC(=O)N1CCCOc1ccc([C@H]2Oc3cc(O)ccc3C3=C2c2ccc(O)cc2OCC3)cc1 | 2.63 nM | 0% | 12.7 nM | > 10000 nM |
| COc1ccc2c(c1)O[C@@H](c1ccc(OCCN3CCCCC3)cc1)C1=C2CCOc2cc(O)ccc21 | 6.3 nM | 12% | 63 nM | 25.9 nM |
| Oc1ccc2c(c1)O[C@H](c1cccc(OCCN3CCSCC3)c1)C1=C2CCOc2cc(O)ccc21 | > 1000 nM | – | > 1000 nM | > 10000 nM |
| COc1ccc2c(c1)O[C@@H](c1ccc(OCCN3CCCCC3)cc1)C1=C2CCOc2cc(OC)ccc21 | > 10000 nM | 7% | > 10000 nM | > 10000 nM |
| CCN(CC)CCOc1ccc([C@@H]2Oc3cc(F)ccc3C3=C2c2ccc(O)cc2OCC3)cc1 | 7 nM | 11% | 11 nM | 122 nM |
| CN1CCN(CCOc2ccc([C@H]3Oc4cc(O)ccc4C4=C3c3ccc(O)cc3OCC4)cc2)CC1 | 8.7 nM | 30% | 86 nM | 90 nM |
| CN1CCN(CCOc2cccc([C@@H]3Oc4cc(O)ccc4C4=C3c3ccc(O)cc3OCC4)c2)CC1 | > 1000 nM | – | > 1000 nM | > 10000 nM |
| Oc1ccc2c(c1)O[C@@H](c1cccc(OCCN3CCSCC3)c1)C1=C2CCOc2cc(O)ccc21 | > 1000 nM | – | > 1000 nM | > 10000 nM |
| CN1CCN(CCOc2ccc([C@@H]3Oc4cc(O)ccc4C4=C3c3ccc(O)cc3OCC4)cc2)CC1 | 312 nM | 5% | 580 nM | > 10000 nM |
| CN(C)CCOc1ccc([C@H]2Oc3cc(O)ccc3C3=C2c2ccccc2OCC3)cc1 | 180 nM | 23% | 205 nM | 8990 nM |
| CN(C)CCOc1ccc([C@H]2Oc3ccccc3C3=C2c2ccc(O)cc2OCC3)cc1 | – | 55% | 105 nM | – |
| Oc1ccc2c(c1)O[C@H](c1ccc(OCCN3CCCCCC3)cc1)C1=C2CCOc2cc(O)ccc21 | – | 60% | 19 nM | – |
| CN1CCN(CCOc2cccc([C@H]3Oc4cc(O)ccc4C4=C3c3ccc(O)cc3OCC4)c2)CC1 | > 1000 nM | – | > 1000 nM | > 10000 nM |
| Oc1ccc2c(c1)O[C@@H](c1ccc(OCCN3CCCCCC3)cc1)C1=C2CCOc2cc(O)ccc21 | – | 50% | 13.4 nM | – |
